Test results published in PubChem BioAssay (NCI).
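In this assay, cells in 96-well plates receive the compound at five concentrations for 48 hours. Endpoints are linearly interpolated between the surrounding concentrations. TGI marks complete inhibition of growth.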

What was measured:
Experiment in all cases: NCI tumour cell line growth inhibition, 48 h
[1] = system: 786-0 renal
[2] = system: A498 renal
[3] = system: A549 NSCLC
[4] = system: ACHN renal
[5] = system: BT-549 breast
[6] = system: CAKI-1 renal
[7] = system: CCRF-CEM leukemia
[8] = system: COLO 205 colon
[9] = system: DU-145 prostate
[10] = system: EKVX NSCLC
[11] = system: HCC-2998 colon
[12] = system: HCT-116 colon
[13] = system: HCT-15 colon
[14] = system: HL-60(TB) leukemia
[15] = system: HOP-62 NSCLC
[16] = system: HOP-92 NSCLC
[17] = system: HS 578T breast
[18] = system: HT29 colon
[19] = system: IGROV1 ovarian
[20] = system: K-562 leukemia
[21] = system: KM12 colon
[22] = system: LOX IMVI melanoma
[23] = system: M14 melanoma
[24] = system: MALME-3M melanoma
[25] = system: MCF7 breast
[26] = system: MDA-MB-231 breast
[27] = system: MDA-MB-435
[28] = system: MDA-N
[29] = system: NCI-H226 lung
[30] = system: NCI-H23 lung
[31] = system: NCI-H460 lung
[32] = system: NCI-H522 lung
[33] = system: NCI/ADR-RES ovarian
[34] = system: OVCAR-3 ovarian
[35] = system: OVCAR-4 ovarian
[36] = system: OVCAR-5 ovarian
[37] = system: OVCAR-8 ovarian
[38] = system: PC-3 prostate
[39] = system: RPMI-8226 leukemia
[40] = system: RXF 393 renal
[41] = system: SF-268 CNS
[42] = system: SF-295 CNS
[43] = system: SF-539 CNS
[44] = system: SK-MEL-2 melanoma
[45] = system: SK-MEL-28 melanoma
[46] = system: SK-MEL-5 melanoma
[47] = system: SK-OV-3 ovarian
[48] = system: SN12C renal
[49] = system: SNB-19 CNS
[50] = system: SR leukemia
[51] = system: SW-620 colon
[52] = system: T-47D breast
[53] = system: TK-10 renal
[54] = system: U251 CNS
[55] = system: UACC-257 melanoma
[56] = system: UACC-62 melanoma
[57] = system: UO-31 renal
[58] = system: MOLT-4 leukemia
[59] = system: SNB-75 CNS

COc1ccc(NC(=S)N/N=C(\c2ccccc2)c2ccccn2)cc1
TGI [1]: 11.2 µM | TGI [2]: 16 µM | TGI [3]: 14.2 µM | TGI [4]: 10.5 µM | TGI [5]: 20.2 µM | TGI [6]: 10.5 µM | TGI [7]: > 40.1 µM | TGI [8]: 30.3 µM | TGI [9]: 11.2 µM | TGI [10]: 2.65 µM | TGI [11]: 22.3 µM | TGI [12]: 13.7 µM | TGI [13]: 15 µM | TGI [14]: 1.9 µM | TGI [15]: 5.33 µM | TGI [16]: 9.87 µM | TGI [17]: 56.8 µM | TGI [18]: 23.6 µM | TGI [19]: 17.2 µM | TGI [20]: 3.06 µM | TGI [21]: 15.9 µM | TGI [22]: 18.4 µM | TGI [23]: 2.61 µM | TGI [24]: 11 µM | TGI [25]: 0.703 µM | TGI [26]: 14.4 µM | TGI [27]: 16.9 µM | TGI [28]: 16.2 µM | TGI [29]: 2.61 µM | TGI [30]: 16.4 µM | TGI [31]: 6.47 µM | TGI [32]: 15.3 µM | TGI [33]: 23.8 µM | TGI [34]: 13.2 µM | TGI [35]: 16.9 µM | TGI [36]: 6.5 µM | TGI [37]: 11.7 µM | TGI [38]: 17.6 µM | TGI [39]: > 20.6 µM | TGI [40]: 15.7 µM | TGI [41]: 14.8 µM | TGI [42]: 9.59 µM | TGI [43]: 3.03 µM | TGI [44]: 14.1 µM | TGI [45]: 18.5 µM | TGI [46]: 6.53 µM | TGI [47]: 16 µM | TGI [48]: 7.24 µM | TGI [49]: 18.5 µM | TGI [50]: 5.57 µM | TGI [51]: 20.2 µM | TGI [52]: 13.6 µM | TGI [53]: 2.27 µM | TGI [54]: 27.1 µM | TGI [55]: 2.44 µM | TGI [56]: 10.2 µM | TGI [57]: 8.73 µM

COc1ccc(CNc2nc3ccccc3nc2C(=O)O)cc1OC
TGI [1]: > 100 µM | TGI [2]: > 100 µM | TGI [3]: > 100 µM | TGI [4]: > 100 µM | TGI [5]: > 100 µM | TGI [6]: > 100 µM | TGI [7]: > 100 µM | TGI [8]: > 100 µM | TGI [9]: > 100 µM | TGI [10]: > 100 µM | TGI [11]: > 100 µM | TGI [12]: > 100 µM | TGI [13]: > 100 µM | TGI [14]: > 100 µM | TGI [15]: > 100 µM | TGI [16]: > 100 µM | TGI [17]: > 100 µM | TGI [18]: > 100 µM | TGI [19]: > 100 µM | TGI [20]: > 100 µM | TGI [21]: > 100 µM | TGI [22]: > 100 µM | TGI [24]: > 100 µM | TGI [25]: > 100 µM | TGI [26]: > 100 µM | TGI [27]: > 100 µM | TGI [28]: > 100 µM | TGI [58]: > 100 µM | TGI [29]: > 100 µM | TGI [30]: > 100 µM | TGI [31]: > 100 µM | TGI [32]: > 100 µM | TGI [33]: > 100 µM | TGI [34]: > 100 µM | TGI [35]: > 100 µM | TGI [37]: > 100 µM | TGI [38]: > 100 µM | TGI [39]: > 100 µM | TGI [40]: > 100 µM | TGI [41]: > 100 µM | TGI [42]: > 100 µM | TGI [43]: > 100 µM | TGI [45]: > 100 µM | TGI [46]: > 100 µM | TGI [47]: > 100 µM | TGI [48]: > 100 µM | TGI [59]: > 100 µM | TGI [50]: > 100 µM | TGI [51]: > 100 µM | TGI [52]: > 100 µM | TGI [53]: > 100 µM | TGI [54]: > 100 µM | TGI [55]: > 100 µM | TGI [56]: > 100 µM | TGI [57]: > 100 µM

Cc1ccc(S(=O)(=O)C2=C([Si](C)(C)C)C3CC2[C@@H]2C4C=CC(CC4)[C@H]32)cc1 (some centres not stated)
TGI [1]: > 100 µM | TGI [2]: > 100 µM | TGI [3]: > 100 µM | TGI [4]: > 100 µM | TGI [5]: > 100 µM | TGI [6]: > 100 µM | TGI [8]: > 100 µM | TGI [9]: > 100 µM | TGI [10]: > 100 µM | TGI [11]: > 100 µM | TGI [12]: > 100 µM | TGI [13]: > 100 µM | TGI [14]: > 100 µM | TGI [15]: > 100 µM | TGI [16]: > 100 µM | TGI [17]: > 100 µM | TGI [18]: > 100 µM | TGI [19]: > 100 µM | TGI [20]: > 100 µM | TGI [21]: > 100 µM | TGI [22]: > 100 µM | TGI [23]: > 100 µM | TGI [24]: > 100 µM | TGI [25]: > 100 µM | TGI [26]: > 100 µM | TGI [27]: > 100 µM | TGI [28]: > 100 µM | TGI [58]: > 100 µM | TGI [29]: > 100 µM | TGI [31]: > 100 µM | TGI [32]: > 100 µM | TGI [33]: > 100 µM | TGI [34]: > 100 µM | TGI [35]: > 100 µM | TGI [36]: > 100 µM | TGI [37]: > 100 µM | TGI [38]: > 100 µM | TGI [40]: > 100 µM | TGI [41]: > 100 µM | TGI [42]: > 100 µM | TGI [43]: 88 µM | TGI [44]: 77.4 µM | TGI [45]: > 100 µM | TGI [46]: > 100 µM | TGI [47]: > 100 µM | TGI [48]: > 100 µM | TGI [49]: 76.1 µM | TGI [50]: > 100 µM | TGI [51]: > 100 µM | TGI [52]: > 100 µM | TGI [53]: 99.2 µM | TGI [54]: > 100 µM | TGI [55]: > 100 µM | TGI [56]: > 100 µM | TGI [57]: > 100 µM
